In US8026359B2, “Fungicidal heterocyclic amines” (E.I. du Pont de Nemours and Company, priority 2007, dated 2011):
Marks after values point to notes of the source that are not given here.

Assays:
Format in all cases: in vivo
[1] = test system: Botrytis cinerea; test: Test F: tomato Botrytis, preventive spray on tomato seedlings
Method in brief: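 Preventive run-off spray onto tomato seedlings at 200 ppm (equivalent to 500 g/ha) or 40 ppm. Suspensions: compound predissolved in acetone at 3% of final volume, then taken up in acetone/purified water 50/50 containing 250 ppm Trem® 014 surfactant.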

[2] = test system: Colletotrichum orbiculare; test: Test I: cucumber Colletotrichum anthracnose, preventive spray on cucumber seedlings; conditions: 100 = 100% disease control, 0 = no control relative to controls; for Test I disease control rating: 200 ppm; for pest or weed control at 200 ppm: Colletotrichum orbiculare, 144 h, read-out: Test I disease control rating
Method in brief: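 Preventive foliar spray to run-off on cucumber seedlings, at 200 ppm (stated as equal to 500 g/ha) or 40 ppm. Test suspensions were made in acetone/water 50/50 containing 250 ppm Trem 014, after first dissolving compound in acetone at 3% of final volume.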

[3] = test system: Plasmopara viticola; test: Test R: grape downy mildew, preventive spray on grape seedlings; conditions: 100 ppm (100 g/ha, 1000 L/ha), inoculated the following day, 100 = 100% disease control, 0 = no control relative to controls
Description: (§1) General protocol for preparing test suspensions for Tests A-R: The test compounds were first dissolved in acetone in an amount equal to 3% of the final volume and then suspended at the desired concentration (in ppm) in acetone and purified water (50/50 mix) containing 250 ppm of the surfactant Trem® 014 (polyhydric alcohol esters). The resulting test suspensions were then used in tests A-R. In Tests A-M, compounds were sprayed as a 200 ppm test suspension (equivalent to a rate of 500 g/ha) or as a 40 ppm test suspension to the point of runoff on the test plants. In Tests N-R, compounds were sprayed as a 100 g/ha test suspension (equivalent to a rate of 100 ppm) on the test plants at an application volume of 1000 L/ha. The test suspension was sprayed on grape seedlings. The following day the seedlings were inoculated with a spore suspension of Plasmopara viticola (the causal agent of grape downy mildew) and incubated in a saturated atmosphere at 20° C. for 24 h, then moved to a growth chamber at 20° C. for 7 days, after which time the test units were placed back into a saturated atmosphere at 20° C. for 24 h. Upon removal, disease ratings were made.

[4] = test system: Septoria nodorum; test: Test C: wheat glume blotch, preventive spray on wheat seedlings; conditions: 200 ppm, 100 = 100% disease control, 0 = no control relative to controls; for pest or weed control at 200 ppm: Parastagonospora nodorum, 216 h, read-out: Test C disease control rating
Method in brief: (§2)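 Test plants received run-off sprays of 200 ppm suspension (500 g/ha equivalent) or 40 ppm suspension. These suspensions were made by first dissolving each compound in acetone, then suspending it in an equal acetone/water mix carrying 250 ppm Trem 014.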

[5] = test system: Magnaporthe grisea; conditions: 100 ppm (100 g/ha, 1000 L/ha), rice seedlings, inoculated the following day; 100 = 100% disease control, 0 = no control relative to controls
[6] = test system: Puccinia recondita f. sp. tritici; test: Test B: wheat leaf rust, preventive spray on wheat seedlings; conditions: 200 ppm, 100 = 100% disease control, 0 = no control relative to controls; for pest or weed control at 200 ppm: Puccinia recondita, 192 h, read-out: Test B disease control rating
Method in brief: as §2

[7] = test system: Venturia inaequalis; test: Test O: apple scab, preventive spray on apple seedlings; conditions: 100 ppm (100 g/ha, 1000 L/ha), inoculated the following day, 100 = 100% disease control, 0 = no control relative to controls
Description: as §1, with “apple” for “grape”, “seedlings.” for “seedlings. The following day the seedlings were inoculated with a spore suspension of Plasmopara viticola (the causal agent of grape downy mildew) and incubated in a saturated atmosphere at 20° C. for 24 h, then moved to a growth chamber at 20° C. for 7 days, after which time the test units were placed back into a saturated atmosphere at 20° C. for 24 h. Upon removal, disease ratings were made.”

[8] = test system: Septoria tritici; test: Test D: wheat leaf blotch, preventive spray on wheat seedlings; conditions: 200 ppm, 100 = 100% disease control, 0 = no control relative to controls; for pest or weed control at 200 ppm: Zymoseptoria tritici, 504 h, read-out: Test D disease control rating
Method in brief: as §2

[9] = test system: Rhizoctonia oryzae; test: Test P: rice sheath blight, preventive spray on rice seedlings; conditions: 100 ppm (100 g/ha, 1000 L/ha), inoculated the following day, 100 = 100% disease control, 0 = no control relative to controls
Description: as §1, with “rice” for “grape”, “seedlings.” for “seedlings. The following day the seedlings were inoculated with a spore suspension of Plasmopara viticola (the causal agent of grape downy mildew) and incubated in a saturated atmosphere at 20° C. for 24 h, then moved to a growth chamber at 20° C. for 7 days, after which time the test units were placed back into a saturated atmosphere at 20° C. for 24 h. Upon removal, disease ratings were made.”

[10] = test system: Alternaria solani; test: Test H: tomato early blight, preventive spray on seedlings
Method in brief: as §2

[11] = test system: Fusarium graminearum; test: whole plant or invertebrate; conditions: for Test E disease control rating: 200 ppm, 100 = 100% disease control, 0 = no control relative to controls; for pest or weed control at 200 ppm: Fusarium graminearum, in Triticum aestivum, 192 h, read-out: Test E disease control rating
[12] = test system: Uncinula necator; test: Test N: grape powdery mildew, preventive spray on grape seedlings; conditions: 100 ppm (100 g/ha, 1000 L/ha), inoculated the following day, 100 = 100% disease control, 0 = no control relative to controls
Description: as §1, with “seedlings.” for “seedlings. The following day the seedlings were inoculated with a spore suspension of Plasmopara viticola (the causal agent of grape downy mildew) and incubated in a saturated atmosphere at 20° C. for 24 h, then moved to a growth chamber at 20° C. for 7 days, after which time the test units were placed back into a saturated atmosphere at 20° C. for 24 h. Upon removal, disease ratings were made.”

[13] = test system: Erysiphe graminis f. sp. tritici; test: Test A: wheat powdery mildew, preventive spray on wheat seedlings
Method in brief: as §2

[14] = 200 ppm, 100 = 100% disease control, 0 = no control relative to controls

Row | SMILES | Test F disease control rating [1, 14] [%] | Test I disease control rating [2] [%] | Test R disease control rating [3] [%] | Test C disease control rating [4] [%] | Test Q disease control rating [5] [%] | Test B disease control rating [6] [%] | Test O disease control rating [7] [%] | Test D disease control rating [8] [%] | Test P disease control rating [9] [%] | Test E disease control rating [11] [%] | Test N disease control rating [12] [%] | pest or weed control at 200 ppm [2] [%] | pest or weed control at 200 ppm [4] [%] | pest or weed control at 200 ppm [6] [%] | pest or weed control at 200 ppm [8] [%] | pest or weed control at 200 ppm [11] [%] | other results
1 | COC[C@H](C)Nc1nccc(-c2ncnc(Nc3cccc(C#N)c3)n2)n1 [Compound 18] | 95 | 99 | 86 | 100 | 100 | 100 | 83 | 0 | 100 | 85 | 99 |  |  |  |  |  | Test H disease control rating ([10]; 40 ppm (marked *)): 89* %
2 | COC[C@H](C)Nc1nccc(-c2ncnc(Nc3cc(F)cc(F)c3)n2)n1 [Compound 22, N-(3,5-difluorophenyl)-4-[2-[[(1S)-2-methoxy-1-methylethyl]amino]-4-pyrimidinyl]-1,3,5-triazin-2-amine] |  |  | 83 |  | 100 |  | 99 |  | 100 |  | 99 | 100 | 100 | 99 | 36 | 99 | pest or weed control at 40 ppm ([1]; Botrytis cinerea, 120 h, 40 ppm (marked *), read-out: Test F disease control rating): 99%; pest or weed control at 40 ppm ([10]; Alternaria solani, 168 h, 40 ppm (marked *), read-out: Test H disease control rating): 100%; pest or weed control at 40 ppm ([13]; Blumeria graminis, 192 h, 40 ppm (marked *), read-out: Test A disease control rating): 69%
3 | COC[C@H](C)Nc1nccc(-c2ccnc(Nc3cccc(F)c3)c2)n1 [Compound 56] | 99 | 90 | 97 | 99 | 98 | 99 | 75 | 82 | 100 | 90 | 64 |  |  |  |  |  | Test A disease control rating [13, 14]: 84%
4 | COCC(C)Nc1nccc(-c2ncnc(Nc3cccc(F)c3)n2)n1 (centres unmarked) [Compound 2, N-(3-fluorophenyl)-4-[2-[(2-methoxy-1-methylethyl)amino]-4-pyrimidinyl]-1,3,5-triazin-2-amine] |  |  | 60 |  | 93 |  | 95 |  | 100 |  | 89 | 99 | 99 | 99 | 71 | 95 | pest or weed control at 200 ppm ([1]; Botrytis cinerea, 120 h, 200 ppm, 100 = 100% disease control, 0 = no control relative to controls, read-out: Test F disease control rating): 93%; pest or weed control at 200 ppm ([10]; Alternaria solani, 168 h, 200 ppm, 100 = 100% disease control, 0 = no control relative to controls, read-out: Test H disease control rating): 97%; pest or weed control at 200 ppm ([13]; Blumeria graminis, 192 h, 200 ppm, 100 = 100% disease control, 0 = no control relative to controls, read-out: Test A disease control rating): 94%
